Measured values published in PubChem BioAssay (NCI).
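96-well plates; 48 h exposure; 5 concentrations. Endpoints by linear interpolation between flanking doses. Not reached: highest tested concentration assigned. GI50 is the concentration that inhibits growth by half. TGI: total growth inhibition.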

What was measured:
Assay in all cases: growth of human tumour cells (NCI), 48 h
EKVX NSCLC = tested on: EKVX NSCLC
U251 CNS = tested on: U251 CNS
RPMI-8226 leukemia = tested on: RPMI-8226 leukemia
HT29 colon = tested on: HT29 colon
A549 NSCLC = tested on: A549 NSCLC
OVCAR-8 ovarian = tested on: OVCAR-8 ovarian
ACHN renal = tested on: ACHN renal
UO-31 renal = tested on: UO-31 renal
MCF7 breast = tested on: MCF7 breast
SF-295 CNS = tested on: SF-295 CNS
K-562 leukemia = tested on: K-562 leukemia
NCI-H522 lung = tested on: NCI-H522 lung
HOP-62 NSCLC = tested on: HOP-62 NSCLC
UACC-62 melanoma = tested on: UACC-62 melanoma
DU-145 prostate = tested on: DU-145 prostate
TK-10 renal = tested on: TK-10 renal
NCI/ADR-RES ovarian = tested on: NCI/ADR-RES ovarian
LOX IMVI melanoma = tested on: LOX IMVI melanoma
T-47D breast = tested on: T-47D breast
CAKI-1 renal = tested on: CAKI-1 renal
BT-549 breast = tested on: BT-549 breast
SNB-75 CNS = tested on: SNB-75 CNS
RXF 393 renal = tested on: RXF 393 renal
NCI-H23 lung = tested on: NCI-H23 lung
PC-3 prostate = tested on: PC-3 prostate
OVCAR-4 ovarian = tested on: OVCAR-4 ovarian
MOLT-4 leukemia = tested on: MOLT-4 leukemia
SK-OV-3 ovarian = tested on: SK-OV-3 ovarian
HL-60(TB) leukemia = tested on: HL-60(TB) leukemia
786-0 renal = tested on: 786-0 renal
UACC-257 melanoma = tested on: UACC-257 melanoma
KM12 colon = tested on: KM12 colon
HCT-15 colon = tested on: HCT-15 colon
HOP-92 NSCLC = tested on: HOP-92 NSCLC
M14 melanoma = tested on: M14 melanoma
SF-268 CNS = tested on: SF-268 CNS
MDA-MB-435 = tested on: MDA-MB-435
SN12C renal = tested on: SN12C renal
SK-MEL-2 melanoma = tested on: SK-MEL-2 melanoma
NCI-H460 lung = tested on: NCI-H460 lung
SR leukemia = tested on: SR leukemia
OVCAR-3 ovarian = tested on: OVCAR-3 ovarian
NCI-H226 lung = tested on: NCI-H226 lung
HCT-116 colon = tested on: HCT-116 colon
OVCAR-5 ovarian = tested on: OVCAR-5 ovarian
IGROV1 ovarian = tested on: IGROV1 ovarian
SK-MEL-28 melanoma = tested on: SK-MEL-28 melanoma
COLO 205 colon = tested on: COLO 205 colon
SNB-19 CNS = tested on: SNB-19 CNS
SW-620 colon = tested on: SW-620 colon
SK-MEL-5 melanoma = tested on: SK-MEL-5 melanoma
HS 578T breast = tested on: HS 578T breast
SF-539 CNS = tested on: SF-539 CNS

`CCOC(=O)[C@H]1O[C@@H]1C(=O)N[C@@H](CC(C)C)C(=O)NCCc1ccc(O)cc1` gave a GI50 (EKVX NSCLC) of over 100 µM, a TGI (EKVX NSCLC) of over 100 µM and a GI50 (U251 CNS) of over 100 µM. For the same molecule, the TGI (U251 CNS) was over 100 µM, the GI50 (RPMI-8226 leukemia) was over 100 µM and the TGI (RPMI-8226 leukemia) was over 100 µM. For the same molecule, the GI50 (HT29 colon) was over 100 µM, the TGI (HT29 colon) was over 100 µM and the GI50 (A549 NSCLC) was over 100 µM. The TGI (A549 NSCLC) was over 100 µM, the GI50 (OVCAR-8 ovarian) was over 100 µM and the TGI (OVCAR-8 ovarian) was over 100 µM. It also gave a GI50 (ACHN renal) of over 100 µM, a TGI (ACHN renal) of over 100 µM and a GI50 (UO-31 renal) of over 100 µM. The TGI (UO-31 renal) was over 100 µM, the GI50 (MCF7 breast) was over 100 µM and the TGI (MCF7 breast) was over 100 µM. The GI50 (SF-295 CNS) was over 100 µM, the TGI (SF-295 CNS) was over 100 µM and the GI50 (K-562 leukemia) was 48.4 µM. The TGI (K-562 leukemia) was over 100 µM, the GI50 (NCI-H522 lung) was over 100 µM and the TGI (NCI-H522 lung) was over 100 µM. For the same molecule, the GI50 (HOP-62 NSCLC) was over 100 µM, the TGI (HOP-62 NSCLC) was over 100 µM and the GI50 (UACC-62 melanoma) was over 100 µM. For the same molecule, the TGI (UACC-62 melanoma) was over 100 µM, the GI50 (DU-145 prostate) was over 100 µM and the TGI (DU-145 prostate) was over 100 µM. The GI50 (TK-10 renal) was over 100 µM, the TGI (TK-10 renal) was over 100 µM and the GI50 (NCI/ADR-RES ovarian) was over 100 µM. For the same molecule, the TGI (NCI/ADR-RES ovarian) was over 100 µM, the GI50 (LOX IMVI melanoma) was over 100 µM and the TGI (LOX IMVI melanoma) was over 100 µM. For the same molecule, the GI50 (T-47D breast) was over 100 µM, the TGI (T-47D breast) was over 100 µM and the GI50 (CAKI-1 renal) was over 100 µM. It also gave a TGI (CAKI-1 renal) of over 100 µM, a GI50 (BT-549 breast) of over 100 µM and a TGI (BT-549 breast) of over 100 µM. For the same molecule, the GI50 (SNB-75 CNS) was over 100 µM, the TGI (SNB-75 CNS) was over 100 µM and the GI50 (RXF 393 renal) was over 100 µM. The TGI (RXF 393 renal) was over 100 µM, the GI50 (NCI-H23 lung) was over 100 µM and the TGI (NCI-H23 lung) was over 100 µM. For the same molecule, the GI50 (PC-3 prostate) was over 100 µM, the TGI (PC-3 prostate) was over 100 µM and the GI50 (OVCAR-4 ovarian) was over 100 µM. For the same molecule, the TGI (OVCAR-4 ovarian) was over 100 µM, the GI50 (MOLT-4 leukemia) was over 100 µM and the TGI (MOLT-4 leukemia) was over 100 µM. For the same molecule, the GI50 (SK-OV-3 ovarian) was over 100 µM, the TGI (SK-OV-3 ovarian) was over 100 µM and the GI50 (HL-60(TB) leukemia) was over 100 µM. For the same molecule, the TGI (HL-60(TB) leukemia) was over 100 µM, the GI50 (786-0 renal) was over 100 µM and the TGI (786-0 renal) was over 100 µM. The GI50 (UACC-257 melanoma) was over 100 µM, the TGI (UACC-257 melanoma) was over 100 µM and the GI50 (KM12 colon) was over 100 µM. The TGI (KM12 colon) was over 100 µM, the GI50 (HCT-15 colon) was over 100 µM and the TGI (HCT-15 colon) was over 100 µM. It also gave a GI50 (HOP-92 NSCLC) of over 100 µM, a TGI (HOP-92 NSCLC) of over 100 µM and a GI50 (M14 melanoma) of over 100 µM. For the same molecule, the TGI (M14 melanoma) was over 100 µM, the GI50 (SF-268 CNS) was over 100 µM and the TGI (SF-268 CNS) was over 100 µM. The GI50 (MDA-MB-435) was over 100 µM, the TGI (MDA-MB-435) was over 100 µM and the GI50 (SN12C renal) was over 100 µM. The TGI (SN12C renal) was over 100 µM, the GI50 (SK-MEL-2 melanoma) was over 100 µM and the TGI (SK-MEL-2 melanoma) was over 100 µM. It also gave a GI50 (NCI-H460 lung) of over 100 µM, a TGI (NCI-H460 lung) of over 100 µM and a GI50 (SR leukemia) of 41 µM. For the same molecule, the TGI (SR leukemia) was over 100 µM, the GI50 (OVCAR-3 ovarian) was over 100 µM and the TGI (OVCAR-3 ovarian) was over 100 µM. The GI50 (NCI-H226 lung) was over 100 µM, the TGI (NCI-H226 lung) was over 100 µM and the GI50 (HCT-116 colon) was over 100 µM. It also gave a TGI (HCT-116 colon) of over 100 µM, a GI50 (OVCAR-5 ovarian) of over 100 µM and a TGI (OVCAR-5 ovarian) of over 100 µM. The GI50 (IGROV1 ovarian) was over 100 µM, the TGI (IGROV1 ovarian) was over 100 µM and the GI50 (SK-MEL-28 melanoma) was over 100 µM. It also gave a TGI (SK-MEL-28 melanoma) of over 100 µM, a GI50 (COLO 205 colon) of over 100 µM and a TGI (COLO 205 colon) of over 100 µM. The GI50 (SNB-19 CNS) was over 100 µM, the TGI (SNB-19 CNS) was over 100 µM and the GI50 (SW-620 colon) was over 100 µM. The TGI (SW-620 colon) was over 100 µM, the GI50 (SK-MEL-5 melanoma) was over 100 µM and the TGI (SK-MEL-5 melanoma) was over 100 µM. The GI50 (HS 578T breast) was over 100 µM, the TGI (HS 578T breast) was over 100 µM and the GI50 (SF-539 CNS) was over 100 µM. It also gave a TGI (SF-539 CNS) of over 100 µM.
